This passage reports Kd results from paper PMC6692300, “Targeting HIBCH to reprogram valine metabolism for the treatment of colorectal cancer” (Cell Death & Disease, 2019).

The target in the assay is T1, GFP-HIBCH (3-hydroxyisobutyryl-CoA hydrolase) (Homo sapiens, UniProt Q6NVY1).
T1 construct: GFP fusion of HIBCH
T1 sequence (Q6NVY1 1-386): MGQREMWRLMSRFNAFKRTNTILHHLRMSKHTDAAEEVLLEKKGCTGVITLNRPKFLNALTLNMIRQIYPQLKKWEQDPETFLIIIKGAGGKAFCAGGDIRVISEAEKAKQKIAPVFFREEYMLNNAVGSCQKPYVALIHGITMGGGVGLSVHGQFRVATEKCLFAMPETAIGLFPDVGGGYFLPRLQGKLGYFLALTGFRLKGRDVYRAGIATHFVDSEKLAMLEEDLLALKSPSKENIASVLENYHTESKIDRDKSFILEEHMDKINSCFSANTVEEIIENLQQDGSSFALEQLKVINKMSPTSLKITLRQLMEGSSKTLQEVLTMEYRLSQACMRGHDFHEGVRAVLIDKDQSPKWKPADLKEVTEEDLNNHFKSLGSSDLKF
In words: microscale thermophoresis. Type of assay: binding. To be noted: GFP-tagged HIBCH; fit of three independent measurements. On the technique in general: MST reads how a fluorescent partner responds to local heating, with and without ligand.

SMILES strings stand for the structures.

As for `CCCCCCCCCCCCOC(=O)[C@@H](C)[C@@]1(O)[C@@H](O[C@@H]2OC[C@H](O)[C@H](O[C@@H]3OC[C@@H](O)[C@H](O)[C@H]3OC(=O)c3ccc(OC)cc3)[C@H]2OC(C)=O)C[C@H]2[C@@H]3CC=C4C[C@@H](O)CC[C@]4(C)[C@H]3CC[C@@]21C` [SBF-1], the Kd worked out at 35.9 µM.

As a reminder, the Kd is a measure of binding affinity in units of concentration. A lower Kd goes with tighter binding.
